{"source": "patent US9878984B2", "about": "“Anti-cancer compounds” (NORTHWESTERN UNIVERSITY, priority 2008, dated 2018)", "key": {"[1]": {"system": "pBR322 plasmid DNA", "experiment": "DNA intercalation assay (topoisomerase I based plasmid DNA unwinding)", "assay_type": "biochemical", "settings": "10, 31.6, and 100 μM, human topoisomerase I", "description": "DNA Intercalation Assay: A DNA unwinding assay was performed as previously described with minor modifications. Four Units of recombinant wild type human topoisomerase I (Topogen—Port Orange, Fla.) were incubated with reaction buffer (included with enzyme), ˜0.5 μg of pBR322 plasmid DNA, which is a mixture of form I and form II plasmid DNA, and water added to a final volume of 19 μL. The reactions were incubated at 37° C. for 30 min and then 1 μL of each compound was added to give a final concentration of 10, 31.6, and 100 μM (final solvent concentration of 1% DMSO) and the reaction mixture was incubated at 37° C. for another 30 min. The reaction was stopped by the addition of 5 μL gel loading dye. The samples were immediately loaded onto a 1% agarose gel and electrophoresis was performed at 50 V for 3 h at room temperature. Pictures of the gels were obtained using a Kodak Image Station 440 CF (Kodak—Rochester, N.Y.) equipped with a UV source.\nThis activity depends on the ability of these compounds to intercalate DNA, which is the proposed mechanism of cytotoxic action of amonafide and its analogs. Therefore, the intercalation of plasmid DNA by A1-A9 was compared with the intercalation by amonafide to determine if they behave similarly. A topoisomerase I (topo I) based plasmid DNA unwinding assay was used to determine the intercalation of each compound [1]. […]"}, "[2]": {"system": "HeLa, PC-3M, and MDA-MB-231", "experiment": "MTS growth inhibition assay, human cancer cell lines", "assay_type": "cell-based", "settings": "72 hr, MTS proliferation assay", "description": "Cell Culture: HeLa (cervical carcinoma), WI-38 (normal human […] fibroblasts), and MDA-MB-231 (breast carcinoma), cells were cultured in DMEM (Invitrogen—Carlsbad, Calif.) and PC-3M (metastatic prostate carcinoma) cells were cultured in RPMI-1640. Peripheral blood mononuclear cells (PBMCs) were voluntarily collected from a healthy laboratory worker by standard sterile phlebotomy techniques and isolated using Vacutainer CPT collection tubes (BD Biosciences—Bedford, Mass.). PBMCs were isolated freshly for each experiment. All DMEM and RPMI-1640 media was supplemented with 10% FBS (Atlanta Biologicals—Lawrenceville, Ga.) and 100 U/mL penicillin and streptomycin (Invitrogen). […]\nGrowth Inhibition Assays: HeLa, MDA-MB-231, PC-3M, WI-38, and HUVEC cells were plated at 5,000 cells per well in 96 well plates and allowed to attach for 20 hr (8 hr for HeLa). […] Cell proliferation was measured at t=0 (time at start of treatment) and t=72 hr using MTS AQueous non-radioactive proliferation assay (Promega—Madison, Wis.). […] The absorbance at 490 nm in each well was read with a Spectramax 250 plate reader (Molecular Devices—Sunnyvale, Calif.). […] Data were fit to one site dose response curves in order to obtain specific growth inhibitory concentrations and the relative standard errors of the mean for these concentrations were calculated by the XLfit4 software. […]"}}}
{"smiles": "CN(C)CCN1C(=O)c2cccc3c(N)ccc(c23)C1=O", "note": "[A1, 6-amino-2-[2-(dimethylamino)ethyl]-1H-benz[de]isoquinoline-1,3(2H)-dione]", "values": [{"measurement": "DNA intercalation", "setting": "[1]", "value": "intercalated DNA to a lesser extent than amonafide and the other derivatives"}, {"measurement": "growth inhibition potency", "setting": "[2]", "value": "near identical to amonafide"}]}
